Data taken from article PMC4725915, “Ruthenium(II) Complexes with 2-Phenylimidazo[4,5-f][1,10]phenanthroline Derivatives that Strongly Combat Cisplatin-Resistant Tumor Cells” (Scientific Reports, 2016).

What was measured:
Type in all cases: cell-based, human
[1] = test system: A549R MCTSs; experiment: Growth inhibition of drug-treated MCTSs (size by imaging); settings: 1.0 and 2.0 μM
Description: Traditional research on the efficacy of cancer drugs is usually performed in two-dimensional (2-D) cell cultures, which may not be a true indicator of the in vivo effectiveness of cancer treatments. This is in part due to the absence of cell-cell or cell-extracellular matrix interactions in 2-D cell models. Therefore, the development of cell culture models that can close the gap between conventional 2-D cell experiments and animal studies is necessary to study the cytotoxicity and anti-proliferative activities of drugs. Multicellular tumor spheroids (MCTSs) are heterogeneous cellular aggregates that have properties of solid tumors, such as nutrient and oxygen gradients, hypoxic/necrotic regions, cell-cell matrix interactions, and gene expression.
MCTSs were cultured using the liquid overlay method. A549R cells in the exponential growth phase were dissociated by a trypsin/EDTA solution to gain single-cell suspensions. A number of 3000 diluted A549R cells were transferred to 1.5% agarose-coated transparent 96-well plates with 200 μL of DMEM containing 10% serum. The single cells formed MCTS aggregates approximately 400 μm in diameter after three days with 5% CO2 and 20% O2 at 37 °C. […]

[2] = test system: A549R cells; experiment: Mitochondrial membrane potential (JC-1); settings: different concentrations (0.5, 1.0, 2.0 μM), 24 h
Description: Mitochondria are the principal organelles related to energy metabolism and ATP synthesis; consequently, resistance against chemotherapeutic drugs can often be traced to the mitochondria. […] Mitochondrial dysfunction is involved in apoptotic cell death, and the loss of mitochondrial membrane potential (MMP, ΔΨm) is a hallmark of mitochondrial dysfunction. […] Confocal microscopy and flow cytometry were used to confirm whether complex 4-induced apoptosis occurred by damaging mitochondria, and the cationic dye JC-1 was used as the MMP-sensitive probe.
A549R cells were cultured in 6-well tissue culture plates for 24 h and treated with complex 4 (0.5, 1.0 and 2.0 μM) for 24 h. After the treatment, the cells were collected and resuspended at 1 × 10^6 cells/mL in a pre-warmed staining working solution containing JC-1 (5 μg/mL) and incubated for 15 min at 37 °C. Subsequently, the cells were washed twice with pre-warmed PBS and analyzed immediately with a flow cytometer on a FACS Canto II (BD Biosciences, USA). Red and green mean fluorescence intensities were analyzed using FlowJo 7.6 software (Tree Star, OR, USA). […] After the treatment described above, the stained cells were visualized under an inverted fluorescence microscope (Zeiss Axio Observer D1). JC-1 fluorescence was measured with single excitation (488 nm) and dual emission (shift from green 530 nm to red 590 nm).

[3] = test system: A549R cells; experiment: Cell uptake study by ICP-MS; settings: A549R, 2.0 μM, 12 h
Experimental: (§1) To understand the high sensitivity of cancer cells to Ru(II) complexes, the extent of cellular uptake was investigated with inductively coupled plasma mass spectrometry (ICP-MS) by treating the HeLa, A549, A549R and LO2 cell lines with 2.0 μM concentrations of the Ru(II) complexes and cisplatin for 12 h. […] In this study, the cellular uptake and lipophilicity were distinctly correlated and followed the order: 4 >3 >2 >1. Complex 4 had the best accumulation, but the amount of Ru in LO2 cells was far less than that in the three cancer lines, indicating selective accumulation and improved efficiency for treating cancer. Cisplatin was taken up more efficiently by the sensitive cell line (A549) than by the cisplatin-resistant cell line (A549R). […] However, less than 1.5% of the cellular platinum was accumulated in the mitochondrial fraction of the A549R cells. Therefore, complex 4 could function in a different manner than cisplatin in A549R cells, which would be an appropriate solution to combat cisplatin resistance in tumor cells.
The cells were plated at a density of 1 × 10^5 cells/mL in 10 mL of DMEM for 24 h at 37 °C under 5% CO2 and 20% O2, Ruthenium complexes (2.0 μM) and cisplatin were added to the culture medium and incubated for 12 h, and mixed with cold PBS and a trypsin-EDTA solution in a centrifuge tube for counting. Then, the nuclei and cytoplasm of the cells were extracted by using a Nuclear and Cytoplasmic Protein Extraction Kit (Life Technologies). The samples were digested in 20% HNO3 and 10% H2O2 at room temperature overnight. Each sample was then diluted with Milli-Q water to obtain 2% HNO3 sample solutions. Ruthenium contents were determined using inductively coupled plasma mass spectrometry (ICP-MS Thermo Elemental Co., Ltd.).

[4] = test system: A549R cells; experiment: Subcellular distribution study by ICP-MS; settings: 2.0 μM, 12 h
Experimental: as §1
A549R cells were plated at a density of 1 × 10^5 cells/mL in 10 mL of DMEM for 24 h at 37 °C under 5% CO2 and 20% O2. […] The ruthenium or platinum contents were determined using inductively coupled plasma mass spectrometry (ICP-MS Thermo Elemental Co., Ltd.).

[5] = test system: A549; experiment: MTT cytotoxicity assay, A549; settings: A549, 48 h, mean ± SD of three experiments
Experimental: Compounds 1–4 were evaluated against three tumor cell lines derived from different tissues, including the cervix (HeLa), lung (A549) and cisplatin-resistant lung (A549R) tissues. For comparison, the cytotoxicity of cisplatin was also evaluated. As a control, the toxicities of the complexes were also tested against the normal human cell line (LO2).
The human cervix carcinoma cell line (HeLa), the lung carcinoma cell lines (A549 and A549R), and the human hepatocyte cell line (LO2) were obtained from the Experimental Animal Center at Sun Yat-Sen University (Guangzhou, China). The cells were maintained in Dulbecco’s modified Eagle’s medium (DMEM, Gibco BRL) or Roswell Park Memorial Institute 1640 (RPMI 1640, Gibco BRL) medium supplemented with 10% fetal bovine serum (FBS, Gibco BRL), 100 μg/mL streptomycin, and 100 U/mL penicillin (Gibco BRL) in a humidified incubator under 5% CO2 and 20% O2 at 37 °C. To maintain the resistant phenotype, A549R cells were incubated with 5 μM cisplatin and cultured in drug-free medium for at least a week before use.
The cytotoxicity of the ruthenium complexes and cisplatin were determined by an MTT assay. Briefly, cells were seeded into 96-well microtiter plates at 1 × 10^4 cells per well and grown overnight at 37 °C in a 5% CO2 incubator; then, different concentrations of the complexes in cell culture medium were added to the cultures. The plates were then incubated in an incubator for 48 h under the same conditions. The stock MTT dye solution (15 μL, 5 mg/mL) was added to each well. After 4 h of incubation, the cultures were removed and 150 μL of DMSO was added to each well. The optical density of each well was measured on a microplate spectrophotometer at a wavelength of 595 nm.

## Ru(phen)(bzq)(tbtfpip)(PF6) [Complex 4]
[1]
  change in size of A549R MCTSs: decreased in size over time
[2]
  mitochondrial membrane potential (MMP): loss of MMP
[3]
  share of the compound taken up by A549R cells: Approximately 8%
[4]
  share of cellular metal accumulated in the mitochondrial fraction: over 55%
[5]
  IC50: 1000 ± 200 nM
